Test results: patent US3997549A, “N-arylsulfenylated derivatives of benzofuranyl methylcarbamates” (priority 1973, dated 1976)
≈ marks a conversion by molar mass, not a printed value. Where two headings read alike, the source gives them in different places.

Columns and labels:
in vivo = settings: mouse, po
Description: Acute oral toxicity of the compounds of the present invention to mice was determined after the manner of Hollingworth, Fukuto, and Metcalf in J. Agr. […] A dose of 0.25 ml of each solution was administered to each of four female white Swiss mice using the "bolus" - tipped syringe. […] Final mortality determinations were made forty-eight hours after treatment.

houseflies = assay: whole plant or invertebrate; settings: Musca domestica, topical, 24 h, read-out: Houseflies LD50
Description: Toxicity of the compounds of the present invention to houseflies was tested using the technique described by March and Metcalf in Bull. Calif. State Dept. Agr. […] Adult female houseflies were treated with one drop of acetone solution, applied to the prothorax, using a syringe calibrated to deliver 1.00 ± 0.05 mm^3 drops. Twenty flies were treated at each dosage, each test compound was applied at 8 to 10 dosage levels. Each test was replicated three times. […] A one-inch square of cotton saturated with 40% sugar solution was provided for food in each carton. The cartons of flies were held in a constant temperature chamber at 60° F and 60% relative humidity for 24 hours before mortality counts were made. Flies totally unable to make crawling or walking movements were counted as dead. LD50 values were calculated in the conventional manner.

Culex fatigans = assay: whole plant or invertebrate; settings: Culex quinquefasciatus, 24 h, read-out: Mosquitoes LC50
Description: The appropriate amount of stock solution was added with stirring to 100 ml of tap water and 20-25 fourth instar larvae of Culex fatigans were placed in the solution. After twenty-four hours, the counts were taken. Larvae not able to rise to the surface on touch were counted as dead. Each concentration was run in duplicate and each material was run on two or three different days. The average percent mortality was plotted against the logarithm of the concentration (in ppm) and the LC50 value determined by inspection.

pea aphid = assay: whole plant or invertebrate; settings: Acyrthosiphon pisum, 48 h, read-out: % Kill, PA (systemic)
two-spotted spider mite = assay: whole plant or invertebrate; settings: Tetranychus urticae, 48 h; for mortality at 39 ppm: read-out: % Kill, SM (systemic), 39 ppm soil watering; for mortality at 156 ppm: read-out: % Kill, SM (systemic), 156 ppm soil watering
Mexican bean beetle = assay: whole plant or invertebrate; settings: Epilachna varivestis, 48 h, read-out: % Kill, BB (systemic)
southern army worm = settings: 2880 min
[1] = group printed before the slash (separate test vs carbofuran)

Structure (SMILES) | LD50 at 48 h (in vivo) [mg/kg] | LD50 (houseflies) [mg/kg] | LC50 (Culex fatigans) [ng/mL] | further results
CC(C)c1ccccc1SN(C)C(=O)Oc1cccc2c1OC(C)(C)C2 [XII, 2,3-Dihydro-2,2-dimethyl-7-benzofuranyl (2-isopropylphenylthio) (methyl)carbamate] | 50 to 75 | 8.3 | 3 (≈ 0.00808 µM) | 
COc1ccc(SN(C)C(=O)Oc2cccc3c2OC(C)(C)C3)cc1 [IX, 2,3-Dihydro-2,2-dimethyl-7-benzofuranyl (4-methoxyphenylthio)(methyl)carbamate] | 25 to 50 | 7.8 | 6 (≈ 0.0167 µM) | 
CN(Sc1ccc(Br)cc1)C(=O)Oc1cccc2c1OC(C)(C)C2 [VIII, 2,3-Dihydro-2,2-dimethyl-7-benzofuranyl (4-bromophenylthio)(methyl)carbamate] | 50 to 75 | 9 | 4 (≈ 0.0098 µM) | 
CNC(=O)Oc1cccc2c1OC(C)(C)C2 [Carbofuran, 2,3-dihydro-2,2-dimethyl-7-benzofuranyl methylcarbamate, reference compound] | 2 |  | 52 (≈ 0.235 µM) | mortality at 39 ppm (pea aphid): 100%; mortality at 156 ppm (pea aphid): 100%; mortality at 39 ppm (two-spotted spider mite; [1]): 5%; mortality at 39 ppm (two-spotted spider mite; separate test vs carbofuran): 3%; mortality at 156 ppm (two-spotted spider mite; [1]): 43%; mortality at 156 ppm (two-spotted spider mite; separate test vs carbofuran): 70%; mortality at 39 ppm (Mexican bean beetle): 100%; mortality at 156 ppm (Mexican bean beetle): 100%; % Kill, AW (systemic) (southern army worm; 39 ppm soil watering, group printed before the slash (separate test vs carbofuran)): 50%; % Kill, AW (systemic) (southern army worm; 39 ppm soil watering, separate test vs carbofuran): 100%; % Kill, AW (systemic) (southern army worm; 156 ppm soil watering): 100%
CN(Sc1ccc2ccccc2c1)C(=O)Oc1cccc2c1OC(C)(C)C2 [XVII, 2,3-Dihydro-2,2-dimethyl-7-benzofuranyl (methyl)(2-naphthylthio)carbamate] | 40 | 8 | 3.2 (≈ 0.00843 µM) | 
Cc1ccc(SN(C)C(=O)Oc2cccc3c2OC(C)(C)C3)c(C)c1 [XIII, 2,3-Dihydro-2,2-dimethyl-7-benzofuranyl (2,4-dimethylphenylthio)(methyl)carbamate] | 50 to 100 | 9 | 3 (≈ 0.00839 µM) | 
CN(Sc1ccccc1)C(=O)Oc1cccc2c1OC(C)(C)C2 [Example I, 2,3-Dihydro-2,2-dimethyl-7-benzofuranyl (methyl)(phenylthio)carbamate] | 25 to 50 | 9.3 | 4.5 (≈ 0.0137 µM) | 
CN(Sc1ccc(C#N)cc1)C(=O)Oc1cccc2c1OC(C)(C)C2 [XV, 2,3-Dihydro-2,2-dimethyl-7-benzofuranyl (4-cyanophenylthio)(methyl)carbamate] | 25 to 50 | 22.5 | 22 (≈ 0.0621 µM) | 
